# Experimental data from publication PMC10682951, “Structure-function and rational design of a spider toxin Ssp1a at human voltage-gated sodium channel subtypes” (Frontiers in Pharmacology, 2023).
# Bridge positions count the residues as written; N and C are the ends. Peptide text beside a SMILES is read from it.
# Assays:
# Assay type in all cases: cell-based
# hNaV1.2 = target: T1, hNaV1.2 (Homo sapiens, UniProt Q99250); test: Automated whole-cell patch-clamp (QPatch 16X), hNaV1.2; settings: for IC50: HEK293 cells expressing hNaV1.2 + β1 subunit, QPatch 16X, holding −80 mV, step to 0 mV, peptide incubated 2 min, 0.1% BSA, mean, SEM and n (2-7); for Loss (reduction) in potency vs rSsp1a at hNaV1.2: relative to wild type rSsp1a
# T1 construct: host or cells: HEK293
# Protocol: (§1) Human embryonic kidney 293 (HEK293) cells stably expressing recombinant hNaV1.2, hNaV1.3 and hNaV1.7 and the β1 auxiliary subunit (Scottish Biomedical Drug Discovery, Glasgow, UK) were cultured in Minimal Essential medium (MEM) (Sigma-Aldrich, MO, United States) supplemented with 10% v/v FBS-New Zealand origin (Assay Matrix), 2 mM L-glutamine and selection antibiotics as per manufacturer’s recommendation. The HEK293 cells heterologously expressing mNaV1.7 and F813G-mNaV1.7 were generously provided by Prof Irina Vetter and were cultured in Minimal Essential medium (MEM) (Sigma-Aldrich, MO, United States) supplemented with 10% v/v FBS-New Zealand origin (Assay Matrix), 2 mM L-glutamine and hygromycin 100 μg/mL.
# (§2) NaV channel currents from HEK293 cells stably expressing NaV subtypes and the β1 auxiliary subunit were recorded using an automated whole-cell patch clamp system QPatch 16X (Sophion Bioscience A/S, Ballerup, Denmark). As per the manufacturer’s guidelines, the cells were cultured for 48 h to achieve ∼80% confluency, detached using Detachin (Genlantis) and resuspended to 5 × 10^6 cells/mL in serum free media [CHO-cell SFM (Life Technologies), 25 mM HEPES and 100 U/mL penicillin/streptomycin]. The extracellular solution comprised (in mM) 1 CaCl2, 1 MgCl2, 5 HEPES, 3 KCl, 140 NaCl and 20 TEA-Cl, with the pH adjusted to 7.3 with NaOH. The intracellular solution comprised (in mM) 140 CsF, 1 EGTA, 5 CsOH, 10 HEPES and 10 NaCl, with the pH adjusted to 7.3 with CsOH. The osmolarity of both solutions were adjusted to 320 mOsm with sucrose. Compounds were prepared in extracellular solution containing 0.1% bovine serum albumin (Sigma-Aldrich). To obtain the dose-response curves, cells were maintained at a holding potential −80 mV and Na^+ currents were elicited by […] voltage steps to 0 mV from a −120 mV conditioning pulse applied for […]. Increasing concentrations of the peptide were incubated with the cells at the holding potential for 2 min before the voltage protocol was applied.
# (§3) The experimental data were analysed using QPatch Assay software v5.6.4 and GraphPad Prism 7.0 using a four-parameter Hill equation [Y = Bottom + (Top—Bottom)/(1 + 10^(Log IC50—X)* Hillslope)] to fit concentration response curves by non-linear regression analysis and Student’s t-test. Data are presented as means ± standard error of mean (SEM) with number of independent experiments stated and p < 0.05 is considered statistically significant. Statistically insignificant shift in the activity is denoted by “little” while small but statistically significant shift in the activity is denoted by “slight” throughout the manuscript.
# hNaV1.3 = target: T2, hNaV1.3 (Homo sapiens, UniProt Q9NY46); test: Automated whole-cell patch-clamp (QPatch 16X), hNaV1.3; settings: HEK293 cells expressing hNaV1.3 + β1 subunit; QPatch 16X; holding −80 mV, step to 0 mV; peptide incubated 2 min; 0.1% BSA; mean, SEM and n (3-12)
# T2 construct: host or cells: HEK293
# Protocol: as §1, §2, §3
# hNaV1.7 = target: T3, hNaV1.7 (Homo sapiens, UniProt Q15858); test: Automated whole-cell patch-clamp (QPatch 16X), hNaV1.7; settings: for IC50: HEK293 cells expressing hNaV1.7 + β1 subunit, QPatch 16X, holding −80 mV, step to 0 mV, peptide incubated 2 min, 0.1% BSA, mean, SEM and n (3-9); for Loss (reduction) in potency vs rSsp1a at hNaV1.7: relative to wild type rSsp1a
# T3 construct: host or cells: HEK293
# Protocol: as §1, §2, §3
# T2 sequence (Q9NY46 whole entry): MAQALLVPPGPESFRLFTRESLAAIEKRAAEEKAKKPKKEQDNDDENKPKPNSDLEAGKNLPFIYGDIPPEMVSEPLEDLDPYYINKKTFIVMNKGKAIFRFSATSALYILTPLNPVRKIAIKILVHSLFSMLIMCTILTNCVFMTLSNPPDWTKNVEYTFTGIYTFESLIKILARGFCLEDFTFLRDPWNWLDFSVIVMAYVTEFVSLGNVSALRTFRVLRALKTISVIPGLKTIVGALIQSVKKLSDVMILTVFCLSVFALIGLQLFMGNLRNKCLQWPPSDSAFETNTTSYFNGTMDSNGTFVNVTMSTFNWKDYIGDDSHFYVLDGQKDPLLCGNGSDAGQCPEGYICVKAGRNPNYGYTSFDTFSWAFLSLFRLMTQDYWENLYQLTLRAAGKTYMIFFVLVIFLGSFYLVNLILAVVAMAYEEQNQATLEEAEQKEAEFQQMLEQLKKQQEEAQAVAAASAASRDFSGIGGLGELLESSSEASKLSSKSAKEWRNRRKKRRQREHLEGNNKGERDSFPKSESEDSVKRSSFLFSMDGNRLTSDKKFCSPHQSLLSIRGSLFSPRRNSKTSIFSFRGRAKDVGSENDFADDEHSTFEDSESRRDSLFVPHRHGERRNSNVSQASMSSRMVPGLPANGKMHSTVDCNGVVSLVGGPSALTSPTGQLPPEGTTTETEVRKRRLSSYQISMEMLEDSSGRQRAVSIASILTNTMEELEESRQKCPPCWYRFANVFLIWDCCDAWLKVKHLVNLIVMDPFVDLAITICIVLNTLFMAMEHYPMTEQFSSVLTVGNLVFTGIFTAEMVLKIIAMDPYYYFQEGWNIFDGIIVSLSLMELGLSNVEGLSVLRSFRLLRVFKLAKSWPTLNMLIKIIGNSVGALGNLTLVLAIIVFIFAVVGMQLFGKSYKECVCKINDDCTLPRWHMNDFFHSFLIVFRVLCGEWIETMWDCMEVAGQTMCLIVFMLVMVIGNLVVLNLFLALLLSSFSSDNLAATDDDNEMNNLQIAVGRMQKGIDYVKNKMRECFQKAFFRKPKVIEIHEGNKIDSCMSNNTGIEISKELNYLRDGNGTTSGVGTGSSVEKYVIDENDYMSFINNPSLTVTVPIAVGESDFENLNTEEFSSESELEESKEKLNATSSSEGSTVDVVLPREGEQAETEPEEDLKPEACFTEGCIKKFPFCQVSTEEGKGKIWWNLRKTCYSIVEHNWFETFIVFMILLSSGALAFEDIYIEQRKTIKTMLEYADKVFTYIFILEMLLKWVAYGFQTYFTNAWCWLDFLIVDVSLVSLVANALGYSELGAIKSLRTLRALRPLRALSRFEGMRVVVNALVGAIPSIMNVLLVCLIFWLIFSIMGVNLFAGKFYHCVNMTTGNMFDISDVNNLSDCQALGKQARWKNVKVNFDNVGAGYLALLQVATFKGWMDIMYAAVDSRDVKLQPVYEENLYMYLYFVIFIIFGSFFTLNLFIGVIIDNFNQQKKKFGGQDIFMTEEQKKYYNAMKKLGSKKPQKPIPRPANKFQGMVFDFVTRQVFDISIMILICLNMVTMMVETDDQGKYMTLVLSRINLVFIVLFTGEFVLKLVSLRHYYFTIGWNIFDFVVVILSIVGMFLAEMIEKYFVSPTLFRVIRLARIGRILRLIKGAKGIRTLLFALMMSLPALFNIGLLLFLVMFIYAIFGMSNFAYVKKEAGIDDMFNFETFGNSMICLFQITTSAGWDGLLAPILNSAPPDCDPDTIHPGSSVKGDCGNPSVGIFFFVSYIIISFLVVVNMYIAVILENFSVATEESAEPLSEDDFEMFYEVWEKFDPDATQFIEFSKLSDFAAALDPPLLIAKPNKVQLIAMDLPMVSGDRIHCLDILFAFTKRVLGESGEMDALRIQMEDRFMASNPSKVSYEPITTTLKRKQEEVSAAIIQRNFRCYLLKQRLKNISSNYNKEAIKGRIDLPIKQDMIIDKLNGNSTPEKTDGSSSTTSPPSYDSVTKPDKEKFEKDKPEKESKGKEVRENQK
# T2 sequence (Q07699 19-218, further chain): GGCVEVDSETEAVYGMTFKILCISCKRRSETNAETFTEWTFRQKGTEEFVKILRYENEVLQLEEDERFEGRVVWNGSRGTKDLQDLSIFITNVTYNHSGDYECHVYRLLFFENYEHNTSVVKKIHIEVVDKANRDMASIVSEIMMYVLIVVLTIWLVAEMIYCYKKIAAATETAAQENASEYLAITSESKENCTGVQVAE
# T3 sequence (Q15858 whole entry): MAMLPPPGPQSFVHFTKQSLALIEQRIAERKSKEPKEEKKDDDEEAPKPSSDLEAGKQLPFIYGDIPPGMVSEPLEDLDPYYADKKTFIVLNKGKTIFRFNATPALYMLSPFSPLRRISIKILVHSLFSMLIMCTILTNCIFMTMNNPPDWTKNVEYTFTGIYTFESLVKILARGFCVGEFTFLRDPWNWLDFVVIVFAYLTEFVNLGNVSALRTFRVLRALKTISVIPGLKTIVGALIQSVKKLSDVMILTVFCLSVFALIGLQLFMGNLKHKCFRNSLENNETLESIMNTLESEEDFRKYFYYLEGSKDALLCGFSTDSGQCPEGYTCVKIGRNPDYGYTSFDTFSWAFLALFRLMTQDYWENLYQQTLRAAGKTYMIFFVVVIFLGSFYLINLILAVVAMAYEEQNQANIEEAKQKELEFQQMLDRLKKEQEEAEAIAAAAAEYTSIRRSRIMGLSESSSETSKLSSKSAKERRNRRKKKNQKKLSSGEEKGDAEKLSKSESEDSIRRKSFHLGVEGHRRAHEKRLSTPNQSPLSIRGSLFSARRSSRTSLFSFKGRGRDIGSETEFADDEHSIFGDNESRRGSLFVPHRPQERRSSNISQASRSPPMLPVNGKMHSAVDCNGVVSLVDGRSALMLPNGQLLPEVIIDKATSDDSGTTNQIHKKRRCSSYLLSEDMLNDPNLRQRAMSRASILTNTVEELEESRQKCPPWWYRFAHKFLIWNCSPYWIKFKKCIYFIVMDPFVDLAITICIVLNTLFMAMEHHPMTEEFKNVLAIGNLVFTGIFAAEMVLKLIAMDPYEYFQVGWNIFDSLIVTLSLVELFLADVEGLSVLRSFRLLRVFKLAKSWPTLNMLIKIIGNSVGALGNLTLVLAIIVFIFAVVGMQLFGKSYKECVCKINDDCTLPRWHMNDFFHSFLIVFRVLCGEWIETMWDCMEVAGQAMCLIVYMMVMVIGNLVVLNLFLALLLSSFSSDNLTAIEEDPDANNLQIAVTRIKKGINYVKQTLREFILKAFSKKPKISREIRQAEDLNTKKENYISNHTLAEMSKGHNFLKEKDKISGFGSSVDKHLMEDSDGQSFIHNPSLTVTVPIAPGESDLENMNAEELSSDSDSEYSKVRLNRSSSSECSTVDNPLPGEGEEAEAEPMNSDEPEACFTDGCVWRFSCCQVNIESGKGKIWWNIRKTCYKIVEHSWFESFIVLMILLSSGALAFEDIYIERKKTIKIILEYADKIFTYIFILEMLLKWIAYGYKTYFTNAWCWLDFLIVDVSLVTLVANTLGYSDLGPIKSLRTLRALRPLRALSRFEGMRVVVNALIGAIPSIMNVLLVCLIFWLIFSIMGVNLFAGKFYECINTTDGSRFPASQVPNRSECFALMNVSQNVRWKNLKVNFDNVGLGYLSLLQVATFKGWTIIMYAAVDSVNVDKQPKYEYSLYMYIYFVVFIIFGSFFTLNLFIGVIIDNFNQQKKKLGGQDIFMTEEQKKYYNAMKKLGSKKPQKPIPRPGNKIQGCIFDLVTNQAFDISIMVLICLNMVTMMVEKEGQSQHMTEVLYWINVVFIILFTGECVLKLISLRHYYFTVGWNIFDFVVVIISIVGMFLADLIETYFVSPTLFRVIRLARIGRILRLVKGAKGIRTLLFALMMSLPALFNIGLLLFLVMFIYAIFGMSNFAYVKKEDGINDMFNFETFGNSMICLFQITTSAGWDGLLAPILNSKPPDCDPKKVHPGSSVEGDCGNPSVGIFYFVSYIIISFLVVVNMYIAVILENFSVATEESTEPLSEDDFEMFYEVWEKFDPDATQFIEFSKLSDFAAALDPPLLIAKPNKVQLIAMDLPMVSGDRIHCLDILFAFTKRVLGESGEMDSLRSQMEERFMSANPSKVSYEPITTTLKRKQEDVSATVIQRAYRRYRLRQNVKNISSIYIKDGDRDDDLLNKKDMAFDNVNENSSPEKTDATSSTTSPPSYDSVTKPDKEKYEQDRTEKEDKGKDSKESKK
# T3 sequence (Q07699 19-218, further chain): as the sequence (Q07699 19-218, further chain) above
SMILES,IC50 (hNaV1.2) [nM],Loss (reduction) in potency vs rSsp1a at hNaV1.2 (hNaV1.2) [fold],IC50 (hNaV1.3) [nM],IC50 (hNaV1.7) [nM],Loss (reduction) in potency vs rSsp1a at hNaV1.7 (hNaV1.7) [fold]
"CC(C)C[C@H](NC(=O)[C@H](CC(=O)O)NC(=O)[C@H](Cc1ccc(O)cc1)NC(=O)[C@H](CCCNC(=N)N)NC(=O)[C@@H]1CSSC[C@@H]2NC(=O)[C@H](CCCCN)NC(=O)[C@H](CC(N)=O)NC(=O)[C@H](CC(N)=O)NC(=O)[C@H](CC(N)=O)NC(=O)[C@@H]3CCCN3C(=O)[C@H](CC(=O)O)NC(=O)[C@@H]3CSSC[C@H](NC(=O)[C@H](C(C)C)NC(=O)[C@H](Cc4ccc(O)cc4)NC(=O)CNC(=O)[C@H](CCC(=O)O)NC(=O)[C@H](CSSC[C@H](NC(=O)[C@H](CC(=O)O)NC(=O)CN)C(=O)N[C@@H](CC(C)C)C(=O)NCC(=O)N[C@@H](Cc4c[nH]c5ccccc45)C(=O)N[C@@H](C)C(=O)N[C@@H](CO)C(=O)NCC(=O)N3)NC2=O)C(=O)N[C@@H](Cc2c[nH]cn2)C(=O)N[C@@H](Cc2c[nH]c3ccccc23)C(=O)N[C@@H](CCCCN)C(=O)N[C@@H](Cc2ccc(O)cc2)C(=O)N2CCC[C@H]2C(=O)N[C@@H](Cc2c[nH]c3ccccc23)C(=O)N1)C(=O)O [F6A] (H-GDCLGWASGCDPNNNKCCEGYVCHWKYPWCRYDL-OH; disulfide 3-18, 10-23, 17-30 (inferred); N-terminus and C-terminus assumed)",> 1000,≥ 10,> 1000,> 1000,≥ 10
CC(C)C[C@H](NC(=O)[C@H](CCCCN)NC(=O)[C@H](Cc1ccc(O)cc1)NC(=O)[C@H](CCCNC(=N)N)NC(=O)[C@@H]1CSSC[C@@H]2NC(=O)[C@H](CCCCN)NC(=O)[C@H](CC(N)=O)NC(=O)[C@H](CC(N)=O)NC(=O)[C@H](CC(N)=O)NC(=O)[C@@H]3CCCN3C(=O)[C@H](CC(=O)O)NC(=O)[C@@H]3CSSC[C@H](NC(=O)[C@H](C(C)C)NC(=O)[C@H](Cc4ccc(O)cc4)NC(=O)CNC(=O)[C@H](CCC(=O)O)NC(=O)[C@H](CSSC[C@H](NC(=O)[C@H](CC(=O)O)NC(=O)CN)C(=O)N[C@@H](CC(C)C)C(=O)NCC(=O)N[C@@H](Cc4c[nH]c5ccccc45)C(=O)N[C@@H](Cc4ccccc4)C(=O)N[C@@H](CO)C(=O)NCC(=O)N3)NC2=O)C(=O)N[C@@H](Cc2c[nH]cn2)C(=O)N[C@@H](Cc2c[nH]c3ccccc23)C(=O)N[C@@H](CCCCN)C(=O)N[C@@H](Cc2ccc(O)cc2)C(=O)N2CCC[C@H]2C(=O)N[C@@H](Cc2c[nH]c3ccccc23)C(=O)N1)C(=O)O [D32K],75,,98,86,
"CC(C)C[C@H](NC(=O)[C@H](CC(=O)O)NC(=O)[C@H](Cc1ccc(O)cc1)NC(=O)[C@H](C)NC(=O)[C@@H]1CSSC[C@@H]2NC(=O)[C@H](CCCCN)NC(=O)[C@H](CC(N)=O)NC(=O)[C@H](CC(N)=O)NC(=O)[C@H](CC(N)=O)NC(=O)[C@@H]3CCCN3C(=O)[C@H](CC(=O)O)NC(=O)[C@@H]3CSSC[C@H](NC(=O)[C@H](C(C)C)NC(=O)[C@H](Cc4ccc(O)cc4)NC(=O)CNC(=O)[C@H](CCC(=O)O)NC(=O)[C@H](CSSC[C@H](NC(=O)[C@H](CC(=O)O)NC(=O)CN)C(=O)N[C@@H](CC(C)C)C(=O)NCC(=O)N[C@@H](Cc4c[nH]c5ccccc45)C(=O)N[C@@H](Cc4ccccc4)C(=O)N[C@@H](CO)C(=O)NCC(=O)N3)NC2=O)C(=O)N[C@@H](Cc2c[nH]cn2)C(=O)N[C@@H](Cc2c[nH]c3ccccc23)C(=O)N[C@@H](CCCCN)C(=O)N[C@@H](Cc2ccc(O)cc2)C(=O)N2CCC[C@H]2C(=O)N[C@@H](Cc2c[nH]c3ccccc23)C(=O)N1)C(=O)O [R30A] (H-GDCLGWFSGCDPNNNKCCEGYVCHWKYPWCAYDL-OH; disulfide 3-18, 10-23, 17-30 (inferred); N-terminus and C-terminus assumed)",> 1000,≥ 10,> 1000,> 1000,≥ 10
